Reference: patent US6737383B1, “Herbicidal oxadiazolidines” (priority 1999, dated 2004)

Legend:
blackgrass = test: Test B pre/postemergence blackgrass; assay type: in vivo, Alopecurus myosuroides
How it was run: (§1)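 Response is a visual 0-to-10 score relative to untreated plants, where 0 means no effect and 10 means complete control, taken twelve to sixteen days after application. Treatments went onto soil at planting and onto foliage of 1- to 4-leaf plants, using a surfactant-containing non-phytotoxic solvent.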

purple nutsedge = test: Test B pre/postemergence purple nutsedge; assay type: in vivo, Cyperus rotundus; conditions: for Nutsedge plant response rating: scale of 0 to 10 where 0 is no effect and 10 is complete control
How it was run: as §1

soybean = test: Test B pre/postemergence soybean; assay type: in vivo, Glycine max; conditions: for Soybean plant response rating: scale of 0 to 10 where 0 is no effect and 10 is complete control
How it was run: as §1

bamyardgrass = test: Test B flood test barnyardgrass; assay type: in vivo, Echinochloa crus-galli
How it was run: (§2)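 Flood test on plants grown to the 2-leaf stage; treated plants kept in greenhouse twelve to sixteen days, then visually rated against controls on a 0 (no effect) to 10 (complete control) scale.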

corn = test: Test B pre/postemergence corn; assay type: in vivo, Zea mays; conditions: for Corn plant response rating: scale of 0 to 10 where 0 is no effect and 10 is complete control
How it was run: as §1

rape = test: Test B pre/postemergence rape; assay type: in vivo, Brassica napus; conditions: for Rape plant response rating: scale of 0 to 10 where 0 is no effect and 10 is complete control
How it was run: as §1

pigweed = test: Test B pre/postemergence pigweed; assay type: in vivo, Amaranthus retroflexus; conditions: for Redroot pigweed plant response rating: scale of 0 to 10 where 0 is no effect and 10 is complete control
How it was run: as §1

wild oat = test: Test B pre/postemergence wild oat; assay type: in vivo, Avena fatua; conditions: for Wild oats plant response rating: scale of 0 to 10 where 0 is no effect and 10 is complete control
How it was run: as §1

crabgrass = test: Test B pre/postemergence crabgrass; assay type: in vivo, Digitaria sanguinalis; conditions: for Crabgrass plant response rating: scale of 0 to 10 where 0 is no effect and 10 is complete control
How it was run: as §1

velvetleaf = test: Test B pre/postemergence velvetleaf; assay type: in vivo, Abutilon theophrasti; conditions: for Velvetleaf plant response rating: scale of 0 to 10 where 0 is no effect and 10 is complete control
How it was run: as §1

bedstraw = test: Test B pre/postemergence bedstraw; assay type: in vivo, Galium aparine; conditions: Postemergence
How it was run: as §1

surinam grass = test: Test B pre/postemergence surinam grass; assay type: in vivo, Brachiaria decumbens
How it was run: as §1

cocklebur = test: Test B pre/postemergence cocklebur; assay type: in vivo, Xanthium strumarium; conditions: for Cocklebur plant response rating: scale of 0 to 10 where 0 is no effect and 10 is complete control
How it was run: as §1

sugar beet = test: Test B pre/postemergence sugar beet; assay type: in vivo, Beta vulgaris; conditions: for Sugarbeets plant response rating: scale of 0 to 10 where 0 is no effect and 10 is complete control
How it was run: as §1

wheat = test: Test B pre/postemergence wheat; assay type: in vivo, Triticum aestivum; conditions: for Wheat plant response rating: scale of 0 to 10 where 0 is no effect and 10 is complete control
How it was run: as §1

smallflower flatsedge = test: Test B flood test smallflower flatsedge; assay type: in vivo, Cyperus difformis
How it was run: as §2

[1] = Postemergence, Rate 125 g/ha, scale 0 to 10, 0 is no effect, 10 is complete control
[2] = Preemergence, Rate 62 g/ha, scale 0 to 10 (0 no effect, 10 complete control)
[3] = Preemergence, Rate 500 g/ha, scale of 0 to 10 where 0 is no effect and 10 is complete control
[4] = Rate 62 g/ha, Postemergence, scale of 0 to 10 where 0 is no effect and 10 is complete control
[5] = Rate 250 g/ha, Postemergence, scale of 0 to 10 where 0 is no effect and 10 is complete control
[6] = Rate 500 g/ha, Postemergence, scale 0 to 10, 0 no effect, 10 complete control
[7] = Postemergence (flood test), Rate 125 g/ha, scale 0 to 10, 0 is no effect, 10 is complete control
[8] = Rate 62 g/ha, Postemergence (flood test species), scale of 0 to 10 where 0 is no effect and 10 is complete control

CC(C)N(C(=O)n1oc(=O)n(C2CCC2)c1=O)c1ccc(Cl)cc1 [Compound 349]
Plant response rating, Blackgrass (blackgrass; [1]): 4
Plant response rating, Blackgrass (blackgrass; [2]): 2
Blackgrass plant response rating (0 to 10 scale) (blackgrass; Preemergence, Rate 125 g/ha): 2
Blackgrass plant response rating (blackgrass; Preemergence, Rate 250 g/ha, scale of 0 to 10 where 0 is no effect and 10 is complete control): 4
Blackgrass plant response rating (blackgrass; [3]): 4
Blackgrass plant response rating (blackgrass; [4]): 1
Plant response rating, Blackgrass (blackgrass; [5]): 4
Plant response rating, Blackgrass (blackgrass; [6]): 6
Plant response rating, Nutsedge (purple nutsedge; [1]): 0
Plant response rating, Nutsedge (purple nutsedge; [2]): 0
Nutsedge plant response rating (0 to 10 scale) (purple nutsedge; Preemergence, Rate 125 g/ha): 0
Nutsedge plant response rating (purple nutsedge; Preemergence, Rate 250 g/ha): 0
Nutsedge plant response rating (purple nutsedge; Preemergence, Rate 500 g/ha): 0
Nutsedge plant response rating (purple nutsedge; Rate 62 g/ha, Postemergence): 0
Plant response rating, Nutsedge (purple nutsedge; [6]): 0
Plant response rating, Soybean (soybean; [1]): 2
Plant response rating, Soybean (soybean; [2]): 0
Soybean plant response rating (0 to 10 scale) (soybean; Preemergence, Rate 125 g/ha): 0
Soybean plant response rating (soybean; Preemergence, Rate 250 g/ha): 0
Soybean plant response rating (soybean; Preemergence, Rate 500 g/ha): 0
Soybean plant response rating (soybean; Rate 62 g/ha, Postemergence): 1
Plant response rating, Soybean (soybean; [6]): 2
Plant response rating, Barnyardgrass (bamyardgrass; [7]): 2
Barnyardgrass plant response rating (bamyardgrass; [8]): 2
Plant response rating, Barnyardgrass (bamyardgrass; Rate 250 g/ha, Postemergence (flood test species), scale of 0 to 10 where 0 is no effect and 10 is complete control): 9
Plant response rating, Barnyardgrass (bamyardgrass; Rate 500 g/ha, listed under Postemergence (flood test species), scale 0 to 10, 0 no effect, 10 complete control): 9
Plant response rating, Corn (corn; [1]): 0
Plant response rating, Corn (corn; [2]): 0
Corn plant response rating (0 to 10 scale) (corn; Preemergence, Rate 125 g/ha): 0
Corn plant response rating (corn; Preemergence, Rate 250 g/ha): 0
Corn plant response rating (corn; Preemergence, Rate 500 g/ha): 2
Corn plant response rating (corn; Rate 62 g/ha, Postemergence): 0
Plant response rating, Corn (corn; [6]): 0
Plant response rating, Rape (rape; [1]): 0
Plant response rating, Rape (rape; [2]): 0
Rape plant response rating (0 to 10 scale) (rape; Preemergence, Rate 125 g/ha): 0
Rape plant response rating (rape; Preemergence, Rate 250 g/ha): 0
Rape plant response rating (rape; Preemergence, Rate 500 g/ha): 4
Rape plant response rating (rape; Rate 62 g/ha, Postemergence): 0
Plant response rating, Rape (rape; [6]): 0
Plant response rating, Redroot pigweed (pigweed; [1]): 2
Plant response rating, Redroot pigweed (pigweed; [2]): 0
Redroot pigweed plant response rating (0 to 10 scale) (pigweed; Preemergence, Rate 125 g/ha): 0
Redroot pigweed plant response rating (pigweed; Preemergence, Rate 250 g/ha): 2
Redroot pigweed plant response rating (pigweed; Preemergence, Rate 500 g/ha): 7
Redroot pigweed plant response rating (pigweed; Rate 62 g/ha, Postemergence): 0
Plant response rating, Redroot pigweed (pigweed; [6]): 4
Plant response rating, Wild oats (wild oat; [1]): 0
Plant response rating, Wild oats (wild oat; [2]): 0
Wild oats plant response rating (0 to 10 scale) (wild oat; Preemergence, Rate 125 g/ha): 0
Wild oats plant response rating (wild oat; Preemergence, Rate 250 g/ha): 3
Wild oats plant response rating (wild oat; Preemergence, Rate 500 g/ha): 9
Wild oats plant response rating (wild oat; Rate 62 g/ha, Postemergence): 0
Plant response rating, Wild oats (wild oat; [6]): 3
Plant response rating, Crabgrass (crabgrass; [1]): 0
Plant response rating, Crabgrass (crabgrass; [2]): 3
Crabgrass plant response rating (0 to 10 scale) (crabgrass; Preemergence, Rate 125 g/ha): 6
Crabgrass plant response rating (crabgrass; Preemergence, Rate 250 g/ha): 8
Crabgrass plant response rating (crabgrass; Preemergence, Rate 500 g/ha): 9
Crabgrass plant response rating (crabgrass; Rate 62 g/ha, Postemergence): 0
Plant response rating, Crabgrass (crabgrass; [6]): 3
Plant response rating, Velvetleaf (velvetleaf; [1]): 0
Plant response rating, Velvetleaf (velvetleaf; [2]): 0
Velvetleaf plant response rating (0 to 10 scale) (velvetleaf; Preemergence, Rate 125 g/ha): 0
Velvetleaf plant response rating (velvetleaf; Preemergence, Rate 250 g/ha): 3
Velvetleaf plant response rating (velvetleaf; Preemergence, Rate 500 g/ha): 3
Velvetleaf plant response rating (velvetleaf; Rate 62 g/ha, Postemergence): 0
Plant response rating, Velvetleaf (velvetleaf; [6]): 0
Plant response rating, Bedstraw (bedstraw; Rate 125 g/ha, scale 0 to 10, 0 is no effect, 10 is complete control): 3
Bedstraw plant response rating (bedstraw; Rate 62 g/ha, scale of 0 to 10 where 0 is no effect and 10 is complete control): 2
Plant response rating, Bedstraw (bedstraw; Rate 500 g/ha, scale 0 to 10, 0 no effect, 10 complete control): 3
Plant response rating, B. signalgrass (surinam grass; [1]): 0
B. signalgrass plant response rating (surinam grass; [3]): 4
B. signalgrass plant response rating (surinam grass; [4]): 0
Plant response rating, B. signalgrass (surinam grass; [5]): 0
Plant response rating, B. signalgrass (surinam grass; [6]): 0
Plant response rating, Cocklebur (cocklebur; [1]): 0
Plant response rating, Cocklebur (cocklebur; [2]): 0
Cocklebur plant response rating (0 to 10 scale) (cocklebur; Preemergence, Rate 125 g/ha): 0
Cocklebur plant response rating (cocklebur; Preemergence, Rate 500 g/ha): 0
Cocklebur plant response rating (cocklebur; Rate 62 g/ha, Postemergence): 0
Plant response rating, Cocklebur (cocklebur; [6]): 1
Plant response rating, Sugarbeets (sugar beet; [1]): 0
Plant response rating, Sugarbeets (sugar beet; [2]): 0
Sugarbeets plant response rating (0 to 10 scale) (sugar beet; Preemergence, Rate 125 g/ha): 2
Sugarbeets plant response rating (sugar beet; Preemergence, Rate 250 g/ha): 4
Sugarbeets plant response rating (sugar beet; Preemergence, Rate 500 g/ha): 4
Sugarbeets plant response rating (sugar beet; Rate 62 g/ha, Postemergence): 0
Plant response rating, Sugarbeets (sugar beet; [6]): 0
Plant response rating, Wheat (wheat; [1]): 0
Plant response rating, Wheat (wheat; [2]): 0
Wheat plant response rating (0 to 10 scale) (wheat; Preemergence, Rate 125 g/ha): 0
Wheat plant response rating (wheat; Preemergence, Rate 250 g/ha): 0
Wheat plant response rating (wheat; Preemergence, Rate 500 g/ha): 0
Wheat plant response rating (wheat; Rate 62 g/ha, Postemergence): 0
Plant response rating, Wheat (wheat; [6]): 3
Plant response rating, S. Flatsedge (smallflower flatsedge; [7]): 5
S. Flatsedge plant response rating (smallflower flatsedge; [8]): 0
